Test systems include OVCAR-3 ovarian; HOP-62 NSCLC; IGROV1 ovarian; CCRF-CEM leukemia; SK-OV-3 ovarian; NCI-H522 lung; SF-539 CNS; SF-295 CNS; NCI-H23 lung; COLO 205 colon.
Assay in all cases: inhibition of tumour cell growth, NCI panel, 48 h

Structures are written as SMILES.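 How tested: cells in 96-well plates exposed to compound for 48 hours at five concentrations. The concentration for 50% growth inhibition is given as GI50. At the TGI there is no net growth.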

`COc1ccc2c(c1)C(=O)c1c-2n(CCCN)c(=O)c2cc(OC)c(OC)cc12`: the GI50 is 0.203 µM in the assay on OVCAR-3 ovarian; less than 0.01 µM with HOP-62 NSCLC; 0.154 µM with IGROV1 ovarian; less than 0.01 µM in the assay on CCRF-CEM leukemia; 0.499 µM in the assay with SK-OV-3 ovarian; less than 0.01 µM in the assay with NCI-H522 lung. In addition, the GI50 in the assay with SF-539 CNS was 0.164 µM; in the assay on SF-295 CNS, less than 0.01 µM. The TGI with OVCAR-3 ovarian stood at 1.38 µM; in the assay with HOP-62 NSCLC, 0.133 µM; with IGROV1 ovarian, 0.976 µM; in the assay with SK-OV-3 ovarian it was 10.7 µM; in the assay with NCI-H522 lung, 1.03 µM; in the assay on SF-539 CNS, 1.29 µM. For the same compound, the TGI with SF-295 CNS amounted to 1.04 µM.
Turning to `COc1ccc(C[C@H](N)C(=O)N2C[C@@H](CO)C[C@@H](n3cnc4c(N(C)C)ncnc43)C2)cc1`, the TGI with OVCAR-3 ovarian, with HOP-62 NSCLC, in the assay with IGROV1 ovarian, in the assay with NCI-H23 lung, in the assay with CCRF-CEM leukemia and in the assay on SK-OV-3 ovarian was greater than 100 µM each time. Moreover, the TGI in the assay with NCI-H522 lung, with SF-539 CNS and in the assay on SF-295 CNS was greater than 100 µM throughout.
As for `COc1cc2c(cc1OC)c1c(OC)c(OC)cc3c1c1c2sc(=S)n1CC3`, the TGI is greater than 100 µM in the assay on OVCAR-3 ovarian; greater than 100 µM in the assay on IGROV1 ovarian; greater than 100 µM with NCI-H23 lung; greater than 100 µM with CCRF-CEM leukemia; greater than 100 µM in the assay on SK-OV-3 ovarian; 34.6 µM with NCI-H522 lung. For the same compound, the TGI in the assay with COLO 205 colon, in the assay with SF-539 CNS and with SF-295 CNS was greater than 100 µM each time.
For the compound `COc1ccc(-c2nc(-c3cnccn3)n(COCCO)n2)cc1`, the TGI in the assay on OVCAR-3 ovarian, with HOP-62 NSCLC, in the assay on IGROV1 ovarian, in the assay on NCI-H23 lung, in the assay on CCRF-CEM leukemia and in the assay on SK-OV-3 ovarian was greater than 100 µM throughout. Moreover, the TGI in the assay on NCI-H522 lung, with COLO 205 colon, in the assay on SF-539 CNS and in the assay with SF-295 CNS was greater than 100 µM throughout.
`COc1cc2ncn(-c3cc(OCc4ccccc4C(F)(F)F)c(C(C)=O)s3)c2cc1OC`: the GI50 in the assay on OVCAR-3 ovarian, in the assay with HOP-62 NSCLC, in the assay with IGROV1 ovarian, with NCI-H23 lung, in the assay with CCRF-CEM leukemia and in the assay on SK-OV-3 ovarian was greater than 25 µM in each case. Besides, the GI50 with NCI-H522 lung, in the assay on COLO 205 colon, in the assay with SF-539 CNS and in the assay with SF-295 CNS was greater than 25 µM throughout. In addition, the TGI in the assay with OVCAR-3 ovarian, in the assay on HOP-62 NSCLC, in the assay with IGROV1 ovarian, in the assay with NCI-H23 lung, in the assay with CCRF-CEM leukemia and in the assay with SK-OV-3 ovarian was greater than 25 µM throughout. In addition, the TGI in the assay on NCI-H522 lung, in the assay with COLO 205 colon, with SF-539 CNS and in the assay on SF-295 CNS was greater than 25 µM each time.
Consider `N#Cc1cc(NC(=O)c2ccccc2)c(=O)n2c1[nH]c1ccccc12`, for which the TGI was 80.7 µM with OVCAR-3 ovarian; 88.1 µM in the assay on HOP-62 NSCLC; greater than 100 µM with IGROV1 ovarian; 57.7 µM in the assay with NCI-H23 lung; greater than 100 µM in the assay with CCRF-CEM leukemia; 90.4 µM in the assay with SK-OV-3 ovarian. Besides, the TGI with NCI-H522 lung was 42 µM; with COLO 205 colon, greater than 100 µM; in the assay with SF-539 CNS, 84.4 µM; in the assay on SF-295 CNS, greater than 100 µM.
`Nc1ccc2c(c1)Oc1c(F)c(F)cc3c(=O)c(C(=O)O)cn-2c13`: the TGI in the assay on OVCAR-3 ovarian is 96.6 µM; with HOP-62 NSCLC, greater than 100 µM; in the assay with IGROV1 ovarian it was greater than 100 µM; in the assay on NCI-H23 lung, greater than 100 µM; in the assay with CCRF-CEM leukemia, greater than 100 µM; in the assay on SK-OV-3 ovarian, greater than 100 µM. Besides, the TGI with NCI-H522 lung, in the assay on COLO 205 colon and in the assay with SF-539 CNS was greater than 100 µM each time.
With `CC1=NN(C(=O)c2ccncc2)C(=O)C1N=Nc1ccc2ccccc2c1` (stereo not given), the TGI in the assay with OVCAR-3 ovarian, in the assay on HOP-62 NSCLC, in the assay with IGROV1 ovarian, with NCI-H23 lung, in the assay on CCRF-CEM leukemia and in the assay on SK-OV-3 ovarian was greater than 100 µM throughout. For the same compound, the TGI in the assay on NCI-H522 lung, with COLO 205 colon, in the assay on SF-539 CNS and in the assay on SF-295 CNS was greater than 100 µM each time.
For `CCOC(=O)c1cc(-c2ccc(OC)c(OC)c2)[nH]c1N/N=C/c1c(Cl)cccc1Cl`, the GI50 was 0.74 µM in the assay on OVCAR-3 ovarian; 2.51 µM with HOP-62 NSCLC; 2.45 µM with IGROV1 ovarian; 2.97 µM in the assay with NCI-H23 lung; 2.22 µM with CCRF-CEM leukemia; 1.85 µM with SK-OV-3 ovarian. The GI50 with NCI-H522 lung was 2.27 µM; with COLO 205 colon, 2.9 µM; in the assay with SF-539 CNS it was 1.44 µM; in the assay on SF-295 CNS it was 0.461 µM. In addition, the TGI was 2.64 µM in the assay on OVCAR-3 ovarian; 14.5 µM in the assay with HOP-62 NSCLC; 30.4 µM in the assay on IGROV1 ovarian; 14 µM in the assay on NCI-H23 lung; greater than 100 µM in the assay with CCRF-CEM leukemia; 17.6 µM in the assay with SK-OV-3 ovarian. Besides, the TGI in the assay on NCI-H522 lung is 30 µM; in the assay with COLO 205 colon, greater than 100 µM; in the assay on SF-539 CNS, 5.27 µM; with SF-295 CNS it was 8.31 µM.
Regarding `C=C1CCC2C3(C)COC(c4ccc(Cl)cc4)OC3CCC2(C)C1/C=C/C1=CCOC1=O` (stereo not given), the GI50 with OVCAR-3 ovarian was 7.52 µM; in the assay with HOP-62 NSCLC, 26.8 µM; in the assay with IGROV1 ovarian, 50 µM; with NCI-H23 lung, 3.19 µM; in the assay with CCRF-CEM leukemia, 1.56 µM; in the assay on SK-OV-3 ovarian, 16.7 µM. Besides, the GI50 is 1.11 µM in the assay with NCI-H522 lung, 11.2 µM in the assay on SF-539 CNS and 1.83 µM with SF-295 CNS. In addition, the TGI in the assay on OVCAR-3 ovarian was 56.8 µM; in the assay on HOP-62 NSCLC it was greater than 100 µM; in the assay on IGROV1 ovarian, greater than 100 µM; with NCI-H23 lung it was greater than 100 µM; in the assay with CCRF-CEM leukemia, 12.6 µM; in the assay with SK-OV-3 ovarian it was 74.5 µM. For the same compound, the TGI with NCI-H522 lung was 36.7 µM; with SF-539 CNS it was greater than 100 µM; with SF-295 CNS, 22.5 µM.
